Source: US20210317140A1, “Heterocyclic Compounds and Methods of Use” (MEDIVATION TECHNOLOGIES, INC, priority 2013, published 2021)

What was measured:
CD69+B220+ cells = assay: B cell activation assay (IgD-stimulated splenocytes, CD69+B220+ cells by FACS); assay type: cell-based; settings: mouse splenocytes, IgD 3 μg/mL, 4 h; for CD69 @ 100 nM (% Inh): 100 nM compound
Experimental: 1 Female mouse approximately 2 months old was euthanized with CO2 and the spleen removed. The tissue was homogenized with a polished glass microscope slide. The cells were collected in 5 mL complete medium (RPMI+10% FBS+pen/strep), placed in a 15 mL falcon tube and centrifuged at 500×g for 5 min. The supernatant was discarded and the pellet was resuspended in 3 mL of ACK lysis buffer (NH4Cl 0.17M, KHCO3 10 mM, EDTA-Na2 0.1 mM, pH 7.2), incubated at 37° C. for 5 min. 2 mL complete medium was added and the mixture centrifuged at 500×g for 5 min. The supernatant was discarded and the pellet resuspended in 1 mL complete medium. The mixture was passed through a […] cell strainer and collect in 50 mL falcon tube. Enough medium was added to have a total of 10 mL. The cells were counted and seeded in 24 or 48-well plate in 1 mL complete medium at 10^6 cells/mL. The plate was placed in a 37° C. incubator for 15 min. The cells were treated for 30 min at 37° C. with 100 nM test compound dissolved in 100% DMSO. 3 μL IgD (Accurate chemical and scientific corp.) was added at a final concentration of 3 μg/mL and the mixture incubated at 37° C. for 4 h. The cells were collected in 1.5 mL eppendorf tubes, centrifuged at 500×g for 5 min and then resuspended in 100 μL of PBS+2% FBS. The following antibodies were added: α-B220 PE (pharmingen #553090), α-CD69 APC (pharmingen #60689), live/dead fixable aqua dead cell stain kit (life technologies #L34957) all at 1:300, and the mixture incubated for 15 min at 4° C. in the dark. To this was added 900 μL of PBS+2% FBS and the mixture centrifuged at 500×g for 5 min. The supernatant was removed and the pellet resuspended in 300 μL of PBS+2% FBS and mixed well. The mixture was transferred to a cytometer tube. The samples were run in the FACS Canto II cytometer and quantified by the number of CD69+B220+ cells as a percentage of the total number of B220+ alive cells.

BTK = biological target: T1, BTK (Homo sapiens, UniProt Q06187); assay: BTK kinase assay (HotSpot, 33P ATP); assay type: biochemical; settings: for BTK @ 0.01 μM (% Inh): 0.01 μM compound; for BTK @ 0.01 μM (% Inh) / BTK @ 0.1 μM (% Inh) / BTK @ 1 μM (% Inh): 10 μM ATP; for BTK @ 0.1 μM (% Inh): 0.1 μM compound; for IC50: 10 dose IC50, 10 μM ATP; for BTK @ 1 μM (% Inh): 1 μM compound
T1 construct: purchased Reaction Biology Corporation
T1 sequence (Q06187 whole entry): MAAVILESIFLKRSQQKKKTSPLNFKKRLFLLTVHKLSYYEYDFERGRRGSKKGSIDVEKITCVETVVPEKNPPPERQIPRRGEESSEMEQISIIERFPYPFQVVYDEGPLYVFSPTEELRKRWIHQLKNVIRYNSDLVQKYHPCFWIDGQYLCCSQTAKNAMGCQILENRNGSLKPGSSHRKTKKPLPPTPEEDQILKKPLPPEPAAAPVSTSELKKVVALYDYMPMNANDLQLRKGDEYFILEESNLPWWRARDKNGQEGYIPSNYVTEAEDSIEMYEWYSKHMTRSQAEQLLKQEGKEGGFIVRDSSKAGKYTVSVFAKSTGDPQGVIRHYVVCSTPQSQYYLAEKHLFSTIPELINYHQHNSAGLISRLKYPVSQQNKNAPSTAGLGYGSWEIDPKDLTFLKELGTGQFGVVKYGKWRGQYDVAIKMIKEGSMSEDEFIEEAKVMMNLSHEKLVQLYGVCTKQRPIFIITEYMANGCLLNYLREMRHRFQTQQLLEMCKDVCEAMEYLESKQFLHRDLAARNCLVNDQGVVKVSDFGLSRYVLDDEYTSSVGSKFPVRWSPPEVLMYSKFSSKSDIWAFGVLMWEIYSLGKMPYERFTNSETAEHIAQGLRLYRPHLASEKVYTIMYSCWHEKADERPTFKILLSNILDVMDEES
Procedure, shortened: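 In 20 mM Hepes (pH 7.5) with 10 mM MgCl2, 1 mM EGTA, 0.1 mM Na3VO4, 2 mM DTT, 0.02% Brij35, 0.02 mg/mL BSA and 1% DMSO, kinase and substrate were exposed to ten compound doses for 15–20 min.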

PI3Kδ = biological target: T2, PI3Kδ (Homo sapiens, UniProt O00329); assay: PI3Kδ kinase assay (HTRF, PIP3 detection); assay type: biochemical; settings: for PI3Kδ @ 0.01 μM (% Inh): 0.01 μM compound; for PI3Kδ @ 0.01 μM (% Inh) / PI3Kδ @ 0.1 μM (% Inh) / PI3Kδ @ 1 μM (% Inh): 10 μM ATP; for PI3Kδ @ 0.1 μM (% Inh): 0.1 μM compound; for IC50: 10 dose IC50, 10 μM ATP; for PI3Kδ @ 1 μM (% Inh): 1 μM compound
T2 construct: purchased Reaction Biology Corporation
T2 sequence (O00329 whole entry): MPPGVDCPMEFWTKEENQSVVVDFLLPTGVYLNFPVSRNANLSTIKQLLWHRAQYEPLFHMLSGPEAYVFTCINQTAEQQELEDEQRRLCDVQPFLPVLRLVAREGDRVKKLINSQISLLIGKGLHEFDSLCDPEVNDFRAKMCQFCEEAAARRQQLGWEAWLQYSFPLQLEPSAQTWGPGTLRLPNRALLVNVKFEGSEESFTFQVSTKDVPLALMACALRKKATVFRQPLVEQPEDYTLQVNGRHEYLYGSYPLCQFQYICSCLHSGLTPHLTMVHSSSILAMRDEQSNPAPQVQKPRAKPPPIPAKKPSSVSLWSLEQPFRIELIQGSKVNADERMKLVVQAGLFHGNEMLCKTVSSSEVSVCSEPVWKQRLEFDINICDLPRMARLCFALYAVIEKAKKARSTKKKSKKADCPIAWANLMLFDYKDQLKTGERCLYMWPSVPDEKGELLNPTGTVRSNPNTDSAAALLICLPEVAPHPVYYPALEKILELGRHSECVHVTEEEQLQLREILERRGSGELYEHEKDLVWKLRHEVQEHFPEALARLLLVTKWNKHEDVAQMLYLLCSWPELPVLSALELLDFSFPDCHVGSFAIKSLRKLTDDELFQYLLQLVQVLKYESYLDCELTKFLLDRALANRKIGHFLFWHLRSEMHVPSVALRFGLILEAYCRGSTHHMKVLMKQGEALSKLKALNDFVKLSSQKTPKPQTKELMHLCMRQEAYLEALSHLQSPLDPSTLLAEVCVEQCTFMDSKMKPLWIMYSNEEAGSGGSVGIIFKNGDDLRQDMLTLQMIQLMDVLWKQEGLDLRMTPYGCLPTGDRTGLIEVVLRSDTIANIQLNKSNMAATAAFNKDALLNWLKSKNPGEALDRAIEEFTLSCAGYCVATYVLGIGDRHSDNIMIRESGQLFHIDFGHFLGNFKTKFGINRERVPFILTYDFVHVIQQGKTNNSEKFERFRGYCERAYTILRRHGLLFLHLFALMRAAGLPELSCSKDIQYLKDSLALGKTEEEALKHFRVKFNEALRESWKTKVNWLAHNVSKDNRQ
T2 sequence (P27986 whole entry partner): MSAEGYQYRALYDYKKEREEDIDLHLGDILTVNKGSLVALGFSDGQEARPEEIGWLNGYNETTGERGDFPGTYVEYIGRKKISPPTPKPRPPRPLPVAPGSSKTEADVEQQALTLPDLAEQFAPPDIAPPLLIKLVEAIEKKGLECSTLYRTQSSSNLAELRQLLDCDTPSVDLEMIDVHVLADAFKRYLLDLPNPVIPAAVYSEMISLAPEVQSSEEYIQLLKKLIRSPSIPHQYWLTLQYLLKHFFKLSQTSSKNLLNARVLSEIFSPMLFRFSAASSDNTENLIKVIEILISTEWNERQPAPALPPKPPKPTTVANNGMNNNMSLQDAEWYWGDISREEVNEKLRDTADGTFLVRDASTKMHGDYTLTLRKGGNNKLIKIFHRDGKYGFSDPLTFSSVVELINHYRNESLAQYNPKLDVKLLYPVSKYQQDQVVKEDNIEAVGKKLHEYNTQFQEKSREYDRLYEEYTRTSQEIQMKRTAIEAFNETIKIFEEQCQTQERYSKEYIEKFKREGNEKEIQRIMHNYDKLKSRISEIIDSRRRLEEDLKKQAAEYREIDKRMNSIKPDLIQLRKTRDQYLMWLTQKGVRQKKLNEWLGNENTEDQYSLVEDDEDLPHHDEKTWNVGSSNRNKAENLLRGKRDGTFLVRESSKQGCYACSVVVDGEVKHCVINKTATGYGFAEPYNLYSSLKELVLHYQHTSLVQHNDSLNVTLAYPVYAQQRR
Procedure, shortened: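 10-dose HTRF assay; kinase preincubated with compound 10 min at RT, then reacted with 10 μM PIP2 and 10 μM ATP for 30 min at 30 °C in HEPES pH 7.0 buffer. PIP3 product displaces biotin-PIP3 from the Eu/APC complex; signal converted to PIP3 via standard curve, IC50 by nonlinear regression.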

| SMILES | CD69 @ 100 nM (% Inh) (CD69+B220+ cells) | BTK @ 0.01 μM (% Inh) (BTK) | BTK @ 0.1 μM (% Inh) (BTK) | PI3Kδ @ 0.01 μM (% Inh) (PI3Kδ) | PI3Kδ @ 0.1 μM (% Inh) (PI3Kδ) | CD69 @ 100 nM (% Inh) (CD69+B220+ cells; 0.1 µM) | IC50 (BTK) | IC50 (PI3Kδ) | BTK @ 1 μM (% Inh) (BTK) | PI3Kδ @ 1 μM (% Inh) (PI3Kδ) | IC50 (CD69+B220+ cells; Splenocyte) |
| --- | --- | --- | --- | --- | --- | --- | --- | --- | --- | --- | --- |
| Nc1ncnc2c1c(-c1cc(O)c(F)c(C(F)(F)F)c1)nn2C1CCc2ccccc2C1 (stereo not shown) [compound 123, 5-[4-amino-1-(1,2,3,4-tetrahydronaphthalen-2-yl)-1H-pyrazolo[3,4-d]pyrimidin-3-yl]-2-fluoro-3-(trifluoromethyl)phenol] | 29.22 ± 4.64 (n = 3) % Inh | 1.82 % Inh | −0.78 % Inh | 59.11 % Inh | 88.87 % Inh | – | – | – | – | – | – |
| Nc1ncnc2c1c(-c1ccc3[nH]cnc3c1)nn2C1CCc2ccccc2C1 (single isomer, unassigned) [Compound No. 19b, 3-(1H-benzo[d]imidazol-5-yl)-1-(1,2,3,4-tetrahydronaphthalen-2-yl)-1H-pyrazolo[3,4-d]pyrimidin-4-amine] | – | – | – | – | – | 36.67 ± 6.35 (n = 6) % Inh | 1270 nM | 6.4 nM | – | – | – |
| Nc1ncnc2c1c(-c1cc(O)c(Cl)cc1Cl)nn2C1Cc2ccccc2C1 [Compound No. 103, 5-[4-amino-1-(2,3-dihydro-1H-inden-2-yl)-1H-pyrazolo[3,4-d]pyrimidin-3-yl]-2,4-dichlorophenol] | 25.06 ± 22.54 (n = 5) % Inh | – | 47.24 % Inh | – | 72.71 % Inh | – | 162 nM | 45.7 nM | 89.82 % Inh | 94.52 % Inh | – |
| Nc1ncnc2c1c(-c1cc(O)c(F)c(F)c1)nn2C1CCc2ccccc2C1 (stereo not shown) [compound 119, 5-[4-amino-1-(1,2,3,4-tetrahydronaphthalen-2-yl)-1H-pyrazolo[3,4-d]pyrimidin-3-yl]-2,3-difluorophenol] | 47.52 ± 5.57 (n = 3) % Inh | 21.71 % Inh | 70.28 % Inh | 70.35 % Inh | 91.77 % Inh | – | – | – | – | – | – |
| COc1ccc(-c2nn(C3CCc4ccccc4C3)c3ncnc(N)c23)cc1F (single isomer, unassigned) [Compound No. 14b, 3-(3-fluoro-4-methoxyphenyl)-1-(1,2,3,4-tetrahydronaphthalen-2-yl)-1H-pyrazolo[3,4-d]pyrimidin-4-amine] | 24.20 ± 12.24 (n = 6) % Inh | – | – | – | – | – | 1590 nM | 25.4 nM | – | – | – |
| Nc1ncnc2c1c(-c1cc(O)c(F)c(Cl)c1)nn2C1Cc2ccccc2C1 [compound 117, 5-[4-amino-1-(2,3-dihydro-1H-inden-2-yl)-1H-pyrazolo[3,4-d]pyrimidin-3-yl]-3-chloro-2-fluorophenol] | 46.59 ± 11.89 (n = 3) % Inh | 21.31 % Inh | 67.32 % Inh | 75.86 % Inh | 91.69 % Inh | – | – | – | – | – | – |
| Nc1ncnc2c1c(-c1ccc3[nH]cnc3c1)nn2C1CCc2ccccc2C1 (single isomer, unassigned) [Compound No. 19a, 3-(1H-benzo[d]imidazol-5-yl)-1-(1,2,3,4-tetrahydronaphthalen-2-yl)-1H-pyrazolo[3,4-d]pyrimidin-4-amine] | – | – | – | – | – | 24.62 ± 10.79 (n = 6) % Inh | 1210 nM | 14.8 nM | – | – | – |
| NC(=O)c1cc(-c2cn(C3Cc4ccccc4C3)c3ncnc(N)c23)cc(O)c1F [compound 116, 5-[4-amino-7-(2,3-dihydro-1H-inden-2-yl)-7H-pyrrolo[2,3-d]pyrimidin-5-yl]-2-fluoro-3-hydroxybenzamide] | 20.48 ± 16.90 (n = 3) % Inh | 10.59 % Inh | 47.8 % Inh | 6.65 % Inh | 70.68 % Inh | – | 71.8 nM | 77.9 nM | – | – | – |
| Nc1ncnc2c1c(-c1cc(O)cc(F)c1)nn2C1CCc2cc(F)ccc21 (stereo not shown) [compound 42, 3-[4-amino-1-(5-fluoro-2,3-dihydro-1H-inden-1-yl)-1H-pyrazolo[3,4-d]pyrimidin-3-yl]-5-fluorophenol] | 22.71 ± 5.53 (n = 3) % Inh | – | 23.06 % Inh | – | 70.85 % Inh | – | – | – | – | – | – |
| NC(=O)c1ccc(-c2nn(C3Cc4ccccc4C3)c3ncnc(N)c23)cc1O [compound 111, 4-[4-amino-1-(2,3-dihydro-1H-inden-2-yl)-1H-pyrazolo[3,4-d]pyrimidin-3-yl]-2-hydroxybenzamide] | 57.39 ± 5.05 (n = 3) % Inh | 6.49 % Inh | 17.47 % Inh | 64.38 % Inh | 91.28 % Inh | – | – | – | – | – | 118 ± 11.1 nM |
| Nc1ncnc2c1c(-c1cc(O)c(Cl)c(Cl)c1)nn2C1Cc2ccccc2C1 [compound 118, 5-[4-amino-1-(2,3-dihydro-1H-inden-2-yl)-1H-pyrazolo[3,4-d]pyrimidin-3-yl]-2,3-dichlorophenol] | 44.32 ± 10.35 (n = 3) % Inh | 19.01 % Inh | 65.15 % Inh | 79.16 % Inh | 95.72 % Inh | – | – | – | – | – | – |
| NC(=O)c1cc(-c2nn(C3CCc4ccccc4C3)c3ncnc(N)c23)cc(O)c1F (stereo not shown) [compound 131, 5-[4-amino-1-(1,2,3,4-tetrahydronaphthalen-2-yl)-1H-pyrazolo[3,4-d]pyrimidin-3-yl]-2-fluoro-3-hydroxybenzamide] | 15.73 ± 14.11 (n = 3) % Inh | −2.45 % Inh | 0.17 % Inh | 13.11 % Inh | 53.68 % Inh | – | – | – | – | – | – |
| Nc1ncnc2c1c(-c1cc(O)c(F)c(F)c1)nn2C1CCc2ncccc21 (stereo not shown) [compound 126, 5-(4-amino-1-{5H,6H,7H-cyclopenta[b]pyridin-5-yl}-1H-pyrazolo[3,4-d]pyrimidin-3-yl)-2,3-difluorophenol] | 12.35 ± 7.52 (n = 3) % Inh | 8.16 % Inh | 8.18 % Inh | 4.71 % Inh | 2.3 % Inh | – | – | – | – | – | – |
| COc1cc(-c2nn(C3Cc4ccccc4C3)c3ncnc(N)c23)ccc1O [Compound No. 85, 4-[4-amino-1-(2,3-dihydro-1H-inden-2-yl)-1H-pyrazolo[3,4-d]pyrimidin-3-yl]-2-methoxyphenol] | 24.82 ± 9.20 (n = 3) % Inh | 12.89 % Inh | 43.43 % Inh | 35.56 % Inh | 59.95 % Inh | – | 154 nM | 34.7 nM | – | – | – |
| Nc1cc(-c2nn(C3Cc4ccccc4C3)c3ncnc(N)c23)cnc1Cl [Compound No. 104, 5-[4-amino-1-(2,3-dihydro-1H-inden-2-yl)-1H-pyrazolo[3,4-d]pyrimidin-3-yl]-2-chloropyridin-3-amine] | 28.78 ± 19.62 (n = 5) % Inh | – | 72.07 % Inh | – | 38.16 % Inh | – | 54.9 nM | 282 nM | 94.25 % Inh | 82.84 % Inh | – |
